From US9006442B2, “Cannabinoid receptor modulators” (Lupin Limited, priority 2011, dated 2015)
Read-outs that look alike come from different tables or passages of the source.

Biological target: hCB2 (Homo sapiens, UniProt P34972)
Test: cAMP determination in functional hCB2-CHO stable cells (HTRF)
Format: cell-based
Description: In-Vitro Assay Method for Determination of cAMP in Functional hCB2—CHO Stable Cells:
Recombinant CHO-hCB2 cells (procured from Perkin Elmer Inc. USA) were propagated and maintained in Ham's F-12 complete medium containing 10% heat inactivated FBS (Sigma.UK) and 1× penstrep. For assay, 0.1×10^6 to 1.0×10^6 CHO-hCB2 cells were seeded in T-25 flask and grown to mid-log phase in culture media without antibiotics for 2-3 days. […] The test is performed in 96^1/2 area black well plates. For agonist testing, 20 μl cells/well were mixed with 20 μl of sample and 10 μl of forskolin (with final concentration of 10 μM) and incubated for 20 to 40 min at room temperature in incubator. The plate was then processed for the cAMP determination using cAMP Femto-2 HTRF kit (Cisbio, Germany) as per the manual.
The concentration of compound required to stimulate a half-maximal response (EC50) was determined using the GraphPad Prism software (version 5).

[1] = CHO-hCB2 cells, cAMP, forskolin 10 μM, agonist testing, read-out: EC50 Range

Sequence of hCB2 (P34972 whole entry): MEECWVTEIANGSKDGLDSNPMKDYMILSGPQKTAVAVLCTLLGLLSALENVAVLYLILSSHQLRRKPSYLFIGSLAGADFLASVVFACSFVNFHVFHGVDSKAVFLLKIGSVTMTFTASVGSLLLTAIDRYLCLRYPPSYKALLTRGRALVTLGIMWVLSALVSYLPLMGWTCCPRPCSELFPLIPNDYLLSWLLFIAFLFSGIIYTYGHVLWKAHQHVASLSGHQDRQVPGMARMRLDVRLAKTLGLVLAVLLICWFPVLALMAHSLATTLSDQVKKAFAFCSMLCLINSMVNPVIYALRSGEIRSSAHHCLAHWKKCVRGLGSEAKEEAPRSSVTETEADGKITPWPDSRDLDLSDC

Row | SMILES | EC50 [1] [nM] | EC50 [nM]
1 | Cc1c(F)cccc1Nc1ccc(C(=O)N2CC3CC3C2)c2c(C)cccc12 (centres unmarked) [Example-170, 3-Azabicyclo[3.1.0]hexan-3-yl(4-((3-fluoro-2-methylphenyl)amino)-8-methylnaphthalen-1-yl)methanone] | < 10 | 
2 | Cc1cccc2c(Nc3cccc(F)c3F)ccc(C(=O)N3CC4CC(C3)O4)c12 [Example-172, 6-Oxa-3-azabicyclo[3.1.1]heptan-3-yl(4-((2,3-difluorophenyl)amino)-8-methylnaphthalen-1-yl)methanone] |  | < 10
3 | O=C(NCC1CCOCC1)c1ccc(Nc2cccc(Cl)c2)c2ccccc12 [Example-180, 4-((3-Chlorophenyl)amino)-N-((tetrahydro-2H-pyran-4-yl)methyl)-1-naphthamide] |  | 10 to 1000
4 | O=C(c1ccc(Nc2cc(F)cc(F)c2)c2ccccc12)N1CCOCC1 [Example-187, (4-((3,5-Difluorophenyl)amino)naphthalen-1-yl)(morpholino)methanone] | 10 to 1000 | 
5 | CC1COCC(C)N1C(=O)c1ccc(Nc2cc(F)cc(F)c2)c2ccccc12 (centres unmarked) [Example-190, (4-((3,5-Difluorophenyl)amino)naphthalen-1-yl)(3,5-dimethylmorpholino)methanone] | 10 to 1000 | 
6 | O=C(c1ccc(Nc2ccc(Cl)cc2Cl)c2ccccc12)N1CCOCC1 [Example-197, (4-((2,4-Dichlorophenyl)amino)naphthalen-1-yl)(morpholino)methanone] |  | 10 to 1000
7 | O=C(c1ccc(Nc2cccc(C(F)(F)F)c2)c2ccccc12)N1CCOCC1 [Example-201, Morpholino(4-((3-(trifluoromethyl)phenyl)amino)naphthalen-1-yl)methanone] |  | < 10
8 | CN(C)C(=O)c1ccc(Nc2cccc(F)c2C(F)(F)F)c2cccc(Cl)c12 [Example-469, 8-Chloro-4-((3-fluoro-2-(trifluoromethyl)phenyl)amino)-N,N-dimethyl-1-naphthamide] | 10 to 1000 | 
9 | CCN(CC)C(=O)c1cnc(Nc2cccc(C(=O)OC)c2C)c2cccc(Cl)c12 [compound 249, Methyl 2-methyl-3-((5-chloro-4-(diethylcarbamoyl)isoquinolin-1-yl)amino)benzoate] | < 10 | 
10 | CCN(CC)C(=O)c1cnc(Nc2cccc(C(F)(F)F)c2F)c2cccc(C)c12 [compound 277, N,N-Diethyl-1-((2-fluoro-3-(trifluoromethyl)phenyl)amino)-5-methyl isoquinolin-4-carboxamide] |  | < 10
11 | CCN(CC)C(=O)c1cnc(Nc2cccc(C(F)(F)F)c2C)c2cccc(C)c12 [compound 279, N,N-Diethyl-5-methyl-1-((2-methyl-3-(trifluoromethyl)phenyl)amino) isoquinolin-4-carboxamide] |  | < 10
12 | CCN(CC)C(=O)c1cnc(Nc2cccc(Cl)c2F)c2cccc(C)c12 [compound 282, 1-((3-Chloro-2-fluorophenyl)amino)-N,N-diethyl-5-methyl isoquinolin-4-carboxamide] |  | 10 to 1000
13 | CCN(C)C(=O)c1cnc(Nc2cccc(C(F)(F)F)c2F)c2cccc(C)c12 [compound 292, N-Ethyl-1-((2-fluoro-3-(trifluoromethyl)phenyl)amino)-N,5-dimethyl isoquinolin-4-carboxamide] | < 10 | 
14 | CN(C)C(=O)c1cnc(Nc2cccc(C(F)(F)F)c2Cl)c2cccc(Cl)c12 [compound 317, 5-Chloro-1-((2-chloro-3-(trifluoromethyl)phenyl)amino)-N,N-di methylisoquinolin-4-carboxamide] | < 10 | 
15 | CCN(CC)C(=O)c1cnc(Nc2cccc(Cl)c2C)c2cccc(Cl)c12 [compound 322, 5-Chloro-1-((3-chloro-2-methylphenyl)amino)-N,N-diethyl isoquinolin-4-carboxamide] |  | < 10
16 | CCN(CC)C(=O)c1cnc(Nc2cccc(C(F)(F)F)c2C)c2cccc(Cl)c12 [compound 325, 5-Chloro-N-N-diethyl-1-((2-methyl-3-(trifluoromethyl)phenyl)amino) isoquinolin-4-carboxamide] |  | < 10
17 | CCN(CC)C(=O)c1cnc(Nc2cccc(C(F)(F)F)c2F)c2cccc(Cl)c12 [compound 328, 5-Chloro-N,N-diethyl-1-((2-fluoro-3-(trifluoromethyl)phenyl)amino) isoquinolin-4-carboxamide] | < 10 | 
18 | Cc1c(Nc2ncc(C(=O)N(C)C)c3c(Cl)cccc23)cccc1C(F)(F)F [compound 329, 5-Chloro-N,N-dimethyl-1-((2-methyl-3-(trifluoromethyl)phenyl)amino)isoquinolin-4-carboxamide] |  | < 10
19 | CN(C)C(=O)c1cnc(Nc2cccc(C(F)(F)F)c2F)c2cccc(Cl)c12 [compound 330, 5-Chloro-1-((2-fluoro-3-(trifluoromethyl)phenyl)amino)-N,N-dimethylisoquinolin-4-carboxamide] | < 10 | 

Row | SMILES | EC50 [1] [nM] | EC50 [nM]
20 | CCN(C)C(=O)c1cnc(Nc2cccc(C(F)(F)F)c2C)c2cccc(Cl)c12 [compound 331, 5-Chloro-N-ethyl-N-methyl-1-((2-methyl-3-(trifluoromethyl)phenyl)amino)isoquinolin-4-carboxamide] |  | < 10
21 | Cc1c(Cl)cccc1Nc1ncc(C(=O)N(C)C)c2c(Cl)cccc12 [compound 332, 5-Chloro-1-((3-chloro-2-methylphenyl)amino)-N,N-dimethyl isoquinolin-4-carboxamide] |  | < 10
22 | CN(C)C(=O)c1cnc(Nc2cccc(F)c2C(F)(F)F)c2cccc(Cl)c12 [compound 333, 5-Chloro-1-((3-fluoro-2-(trifluoromethyl)phenyl)amino)-N,N-di methylisoquinolin-4-carboxamide] | < 10 | 
23 | CCN(C)C(=O)c1cnc(Nc2cccc(C(F)(F)F)c2F)c2cccc(Cl)c12 [compound 334, 5-Chloro-N-ethyl-1-((2-fluoro-3-(trifluoromethyl)phenyl)amino)-N-methylisoquinolin-4-carboxamide] | < 10 | 
24 | CCN(C)C(=O)c1cnc(Nc2cccc(F)c2C(F)(F)F)c2cccc(Cl)c12 [compound 335, 5-Chloro-N-ethyl-1-((3-fluoro-2-(trifluoromethyl)phenyl)amino)-N-methylisoquinolin-4-carboxamide] | < 10 | 
25 | CCN(C)C(=O)c1cnc(Nc2cccc(F)c2Cl)c2cccc(Cl)c12 [compound 336, 5-Chloro-1-((2-chloro-3-fluorophenyl)amino)-N-ethyl-N-methyl isoquinolin-4-carboxamide] | < 10 | 
26 | CCN(C)C(=O)c1cnc(Nc2c(F)ccc(F)c2F)c2cccc(Cl)c12 [compound 355, 5-Chloro-N-ethyl-N-methyl-1-((2,3,6-trifluorophenyl)amino) isoquinolin-4-carboxamide] | 10 to 1000 | 
27 | CCN(C)C(=O)c1cnc(Nc2cccc(Cl)c2C)c2cccc(Cl)c12 [compound 357, 5-Chloro-1-((3-chloro-2-methylphenyl)amino)-N-ethyl-N-methyl isoquinolin-4-carboxamide] |  | < 10
28 | CCN(C)C(=O)c1cnc(Nc2cccc(Cl)c2Cl)c2cccc(Cl)c12 [compound 363, 5-Chloro-1-((2,3-dichlorophenyl)amino)-N-ethyl-N-methyl isoquinolin-4-carboxamide] |  | < 10
29 | CC(C)N(C)C(=O)c1cnc(Nc2cccc(F)c2C(F)(F)F)c2cccc(Cl)c12 [compound 381, 5-Chloro-1-((3-fluoro-2-(trifluoromethyl)phenyl)amino)-N-isopropyl-N-methylisoquinolin-4-carboxamide] | 10 to 1000 | 
30 | Cc1c(Cl)cccc1Nc1ncc(C(=O)N(C)C(C)C)c2c(Cl)cccc12 [compound 384, 5-Chloro-1-((3-chloro-2-methylphenyl)amino)-N-isopropyl-N-methylisoquinolin-4-carboxamide] |  | 10 to 1000
31 | COC(=O)c1cccc(Nc2ccc(C(=O)N3CCCCC3)c3c(C)cccc23)c1 [compound 407, Methyl 3-((5-methyl-4-(piperidin-1-carbonyl)naphthalen-1-yl)amino) benzoate] | < 10 | 
32 | COC(=O)c1cccc(Nc2ccc(C(=O)N3CCOCC3)c3c(C)cccc23)c1 [compound 408, Methyl 3-((5-methyl-4-(morpholin-4-carbonyl)naphthalen-1-yl)amino) benzoate] | < 10 | 
33 | COC(=O)c1cccc(Nc2ccc(C(=O)N3CCCCC3)c3c(C)cccc23)c1C [compound 409, Methyl 2-methyl-3-((5-methyl-4-(piperidin-1-carbonyl)naphthalen-1-yl)amino)benzoate] | < 10 | 
34 | COC(=O)c1cccc(Nc2ccc(C(=O)N3CCOCC3)c3c(C)cccc23)c1C [compound 410, Methyl 2-methyl-3-((5-methyl-4-(morpholin-4-carbonyl)naphthalen-1-yl)amino)benzoate] | < 10 | 
35 | CCN(CC)C(=O)c1ccc(Nc2cccc(C(=O)OC)c2C)c2cccc(C)c12 [compound 411, Methyl 2-methyl-3-((5-methyl-4-(diethylcarbamoyl)naphthalen-1-yl)amino)benzoate] | < 10 | 
36 | CCN(C)C(=O)c1ccc(Nc2cccc(C(F)(F)F)c2F)c2cccc(C)c12 [compound 413, N-Ethyl-4-((2-fluoro-3-(trifluoromethyl)phenyl)amino)-N,8-dimethyl-1-naphthamide] |  | < 10
37 | Cc1c(Nc2ccc(C(=O)N(C)C)c3c(C)cccc23)cccc1C(F)(F)F [compound 427, N,N,8-Trimethyl-4-((2-methyl-3-(trifluoromethyl)phenyl)amino)-1-naphthamide] | < 10 | 
38 | CCN(C)C(=O)c1ccc(Nc2cccc(C(F)(F)F)c2C)c2cccc(C)c12 [compound 452, N-Ethyl-N,8-dimethyl-4-((2-methyl-3-(trifluoromethyl)phenyl)amino)-1-naphthamide] | < 10 | 
